This passage reports IC50 results from patent US8980926B2, “2-aminoindole compounds and methods for the treatment of malaria” (Genzyme Corporation, priority 2009, dated 2015).

Test system in one data set: not listed separately
Nature of the data set: Erythrocyte lysis. It counts as cell-based. The conditions noted are these: erythrocytes, read-out: Selectivity, Mammalian cytotoxicity (IC50; μM) Eryth. Lysis.
As usually defined, the IC50 is the concentration at which inhibition is half-maximal. For `NC1=Nc2ccc(Cl)cc2C1(O)c1cccc2ccccc12` (stereo not drawn) [Compound 11], the IC50 is above 129 µM.

For `NC1=Nc2ccc(Cl)cc2C1(O)Cc1ccccc1` (stereo not drawn) [Compound 38], the IC50 was above 147 µM.

The test system of the next data set is P. falciparum strain 3D7. Description: In vitro potency against P. falciparum strain 3D7 (SYBR green/DAPI). Type of data set: cell-based. The conditions noted are these: Plasmodium falciparum, read-out: Potency (IC50; nM) Plasmodium spp. Pf 3D7.
As for `NC1=Nc2ccc(Cl)cc2C1(O)c1cccc2ccccc12` (stereo not drawn) [Compound 11], the IC50 was determined as 30 nM. Regarding `NC1=Nc2ccc(Cl)cc2C1(O)Cc1ccccc1` (stereo not drawn) [Compound 38], the IC50 is 38 nM.

Still in this data set, the particulars now being: Plasmodium falciparum, reductions in parasitemia, read-out: IC50 values.
In the case of `NC1=Nc2ccc(Cl)cc2C1(O)c1cccc2ccccc12` (stereo not drawn) [Compound 11], the IC50 is 1 to 100 nM. `NC1=Nc2ccc(Cl)cc2C1(O)Cc1ccccc1` (stereo not drawn) [Compound 38]: the IC50 fell in the range of 1 to 100 nM. Same read-out and setting: then `CC(C)(C)Oc1ccc(F)cc1C1(O)C(N)=Nc2ccc(Cl)cc21` (stereo not drawn) [Compound 194], with 1 to 100 nM; and `COc1ccc(OC2CCC2)c(C2(O)C(N)=Nc3ccccc32)c1` (stereo not drawn) [Compound 195], with 1 to 100 nM. The same measure, in the same setting: then `CCSc1ccc(OC)cc1C1(O)C(N)=Nc2ccc(Cl)cc21` (stereo not drawn) [Compound 196], with 1 to 100 nM; and `NC1=Nc2ccc(Cl)cc2C1(O)C1CCC1` (stereo not drawn) [Compound 197], with 100 to 500 nM; and `NC1=Nc2ccc(Cl)cc2C1(O)c1cc(F)ccc1F` (stereo not drawn) [Compound 198], with 100 to 500 nM. The same measure, in the same setting: then `NC1=Nc2ccc(Cl)cc2C1(O)c1cc(F)ccc1SC1CC1` (stereo not drawn) [Compound 199], with 1 to 100 nM. Turning to `NC1=Nc2ccc(Cl)cc2C1(O)c1cc(F)ccc1C1CC1` (stereo not drawn) [Compound 200], the IC50 fell in the range of 1 to 100 nM. On the same count and under the same terms, the result for `COc1cnc(OC)c(C2(O)C(N)=Nc3ccc(Cl)cc32)c1` (stereo not drawn) [Compound 201] reads 1 to 100 nM.

Regarding `CSc1ccc(F)cc1C1(O)C(N)=Nc2ccc(Cl)cc21` (stereo not drawn) [Compound 203], the IC50 was 1 to 100 nM. Turning to `CSc1ccc(F)c(C2(O)C(N)=Nc3ccc(Cl)cc32)c1` (stereo not drawn) [Compound 204], the IC50 lay within 1 to 100 nM. On the same count and under the same terms, then `NC1=Nc2ccc(Cl)cc2C1(O)c1ccccc1C1CC1` (stereo not drawn) [Compound 205], with 1 to 100 nM. Still for that read-out and setting: the result for `Cc1csc2c(CC3(O)C(N)=Nc4ccc(Cl)cc43)cccc12` (stereo not drawn) [Compound 206] reads 100 to 500 nM. Still for that read-out and setting: the result for `COc1cnc(F)c(C2(O)C(N)=Nc3ccc(Cl)cc32)c1` (stereo not drawn) [Compound 207] reads 100 to 500 nM; that for `CC(C)Oc1ccc(F)c(C2(O)C(N)=Nc3ccc(Cl)cc32)c1` (stereo not drawn) [Compound 208], 1 to 100 nM. `CCOc1ccc(F)c(C2(O)C(N)=Nc3ccc(Cl)cc32)c1` (stereo not drawn) [Compound 209]: the IC50 lay within 1 to 100 nM. On the same count and under the same terms, then `CCOc1cnc(OC)cc1C1(O)C(N)=Nc2ccc(Cl)cc21` (stereo not drawn) [Compound 210], with 1 to 100 nM; and `CCOc1cnc(OC)c(C2(O)C(N)=Nc3ccc(Cl)cc32)c1` (stereo not drawn) [Compound 211], with 1 to 100 nM. The same measure, in the same setting: then `COc1ccc(C2CC2)c(C2(O)C(N)=Nc3ccc(Cl)cc32)c1` (stereo not drawn) [Compound 212], with 1 to 100 nM; and `NC1=Nc2ccc(Cl)cc2C1(O)c1cc(F)ccc1OC1CCOCC1` (stereo not drawn) [Compound 213], with 1 to 100 nM. The same measure, in the same setting: the result for `NC1=Nc2ccc(Cl)cc2C1(O)c1ccccc1N1CCSCC1` (stereo not drawn) [Compound 214] reads 1 to 100 nM; that for `CC(C)Oc1cc(F)ccc1C1(O)C(N)=Nc2ccc(Cl)cc21` (stereo not drawn) [Compound 215], 1 to 100 nM; that for `NC1=Nc2ccc(Cl)cc2C1(O)c1ccccc1OC1CC1` (stereo not drawn) [Compound 216], 1 to 100 nM. Take `COc1cc(F)c(C2(O)C(N)=Nc3ccc(Cl)cc32)cc1OC` (stereo not drawn) [Compound 217]: the IC50 lay within 1 to 100 nM. With `CCCOc1cnc(OC)c(C2(O)C(N)=Nc3ccc(Cl)cc32)c1` (stereo not drawn) [Compound 218], the IC50 is 1 to 100 nM. On the same count and under the same terms, then `NC1=Nc2ccc(Cl)cc2C1(O)c1cc(Cl)ccc1OC1CC1` (stereo not drawn) [Compound 219], with 1 to 100 nM; and `CCCOc1cnc(OC)cc1C1(O)C(N)=Nc2ccc(Cl)cc21` (stereo not drawn) [Compound 220], with 1 to 100 nM; and `COc1cnc(Cl)cc1C1(O)C(N)=Nc2ccc(Cl)cc21` (stereo not drawn) [Compound 221], with 100 to 500 nM.

For `CC(C)Oc1ccccc1[C@]1(O)C(N)=Nc2ccc(Cl)cc21` [Compound 222], the IC50 was 1 to 100 nM. Consider `CC(C)Oc1ccccc1[C@@]1(O)C(N)=Nc2ccc(Cl)cc21` [Compound 223], for which the IC50 lay within 1 to 100 nM. Still for that read-out and setting: the result for `CCOc1cnc(Cl)cc1C1(O)C(N)=Nc2ccc(Cl)cc21` (stereo not drawn) [Compound 224] reads 1 to 100 nM; that for `CCOc1cc(F)ccc1C1(O)C(N)=Nc2ccc(Cl)cc21` (stereo not drawn) [Compound 225], 1 to 100 nM. On the same count and under the same terms, then `Cn1cc(F)c2c(C3(O)C(N)=Nc4ccc(Cl)cc43)cccc21` (stereo not drawn) [Compound 226], with 100 to 500 nM; and `CC(C)C1(O)C(N)=Nc2cccc(Cl)c21` (stereo not drawn) [Compound 227], with 100 to 500 nM. Same read-out and setting: then `CCOc1cc(C2(O)C(N)=Nc3ccc(Cl)cc32)c(OC)cn1` (stereo not drawn) [Compound 228], with 1 to 100 nM; and `NC1=Nc2ccccc2C1(O)CC12CC3CC(CC(C3)C1)C2` (stereo not drawn) [Compound 229], with 100 to 500 nM. Regarding `CC(C)C1(O)C(N)=Nc2cc(Cl)ccc21` (stereo not drawn) [Compound 230], the IC50 was in the range of 100 to 500 nM. On the same count and under the same terms, the result for `Cc1ccc2c(c1)C(O)(C(C)C)C(N)=N2` (stereo not drawn) [Compound 231] reads 100 to 500 nM; that for `NC1=Nc2ccc(Cl)cc2C1(O)c1cc(F)ccc1OC1CC1` (stereo not drawn) [Compound 232], 1 to 100 nM; that for `COc1cc(C2(O)C(N)=Nc3ccc(Cl)cc32)c(F)cn1` (stereo not drawn) [Compound 233], 100 to 500 nM. The same measure, in the same setting: then `CCN(CC)c1ccccc1C1(O)C(N)=Nc2ccc(Cl)cc21` (stereo not drawn) [Compound 234], with 1 to 100 nM; and `CN(C)c1ncccc1C1(O)C(N)=Nc2ccc(Cl)cc21` (stereo not drawn) [Compound 236], with 100 to 500 nM. Same read-out and setting: then `NC1=Nc2ccc(Cl)cc2C1(O)C#Cc1ccccc1` (stereo not drawn) [Compound 237], with 1000 to 5000 nM; and `COc1ncc(Cl)cc1C1(O)C(N)=Nc2ccc(Cl)cc21` (stereo not drawn) [Compound 238], with 1 to 100 nM; and `COc1ncccc1C1(O)C(N)=Nc2ccc(Cl)cc21` (stereo not drawn) [Compound 239], with 100 to 500 nM. For `Cn1c(C2(O)C(N)=Nc3ccc(Cl)cc32)nc2cc(Br)ccc21` (stereo not drawn) [Compound 241], the IC50 lay within 100 to 500 nM. Still for that read-out and setting: then `CCOc1ncc(Cl)cc1C1(O)C(N)=Nc2ccc(Cl)cc21` (stereo not drawn) [Compound 242], with 1 to 100 nM; and `CCOc1cc(C2(O)C(N)=Nc3ccc(Cl)cc32)c(Cl)cn1` (stereo not drawn) [Compound 243], with 1 to 100 nM.

Take `CCOc1ccc(Cl)cc1C1(O)C(N)=Nc2ccc(C)cc21` (stereo not drawn) [Compound 244]: the IC50 was in the range of 1 to 100 nM. Still for that read-out and setting: then `Cc1ccc2c(c1)C(O)(c1cc(Cl)ccc1OC(C)C)C(N)=N2` (stereo not drawn) [Compound 245], with 1 to 100 nM; and `CC(C)[C@]1(O)C(N)=Nc2ccc(Cl)cc21` [Compound 246], with 100 to 500 nM; and `CC(C)[C@@]1(O)C(N)=Nc2ccc(Cl)cc21` [Compound 247], with 100 to 500 nM. The same measure, in the same setting: the result for `CC(C)(C)Oc1ccccc1C1(O)C(N)=Nc2ccc(Cl)cc21` (stereo not drawn) [Compound 248] reads 1 to 100 nM. For `CCOc1ccc(F)cc1C1(O)C(N)=Nc2ccc(C)cc21` (stereo not drawn) [Compound 249], the IC50 was 1 to 100 nM. Regarding `CCOc1cc(F)c(F)cc1C1(O)C(N)=Nc2ccc(Cl)cc21` (stereo not drawn) [Compound 250], the IC50 was 1 to 100 nM. Still for that read-out and setting: then `CCOc1cc(F)ccc1C1(O)C(N)=Nc2ccc(C)cc21` (stereo not drawn) [Compound 251], with 1 to 100 nM; and `Cn1cc2cc(Cl)cc(C3(O)C(N)=Nc4ccc(Cl)cc43)c2n1` (stereo not drawn) [Compound 252], with 1 to 100 nM. For the compound `COc1ccc2c(c1)C(O)(c1cc(Cl)ccc1C1CC1)C(N)=N2` (stereo not drawn) [Compound 253], the IC50 lay within 1 to 100 nM. For the compound `COc1cnc(OC)c(C2(O)C(N)=Nc3ccc(C)cc32)c1` (stereo not drawn) [Compound 254], the IC50 was in the range of 1 to 100 nM. Still for that read-out and setting: the result for `CCOc1cc(F)c(F)cc1C1(O)C(N)=Nc2ccc(C)cc21` (stereo not drawn) [Compound 255] reads 1 to 100 nM; that for `Cc1ccc2c(c1)C(O)(c1ccccc1C1CC1)C(N)=N2` (stereo not drawn) [Compound 256], 1 to 100 nM. Same read-out and setting: the result for `Cc1ccc2c(c1)C(O)(c1cccc3ccccc13)C(N)=N2` (stereo not drawn) [Compound 257] reads 1 to 100 nM; that for `Cn1ncc2cc(Cl)cc(C3(O)C(N)=Nc4ccc(Cl)cc43)c21` (stereo not drawn) [Compound 258], 1 to 100 nM. For the compound `CCOc1cc(Cl)ccc1C1(O)C(N)=Nc2ccc(Cl)cc21` (stereo not drawn) [Compound 259], the IC50 was in the range of 1 to 100 nM. On the same count and under the same terms, the result for `CCOc1ccc(C2(O)C(N)=Nc3ccc(Cl)cc32)c(Cl)c1` (stereo not drawn) [Compound 260] reads 100 to 500 nM. The same measure, in the same setting: the result for `Cc1ccc2c(c1)C(O)(c1cc(Cl)ccc1OC(C)(C)C)C(N)=N2` (stereo not drawn) [Compound 261] reads 1 to 100 nM; that for `Cc1ccc2c(c1)C(O)(c1cc(Cl)ccc1C1CC1)C(N)=N2` (stereo not drawn) [Compound 262], 1 to 100 nM; that for `COc1cc(C2(O)C(N)=Nc3ccc(Cl)cc32)c2ccccc2n1` (stereo not drawn) [Compound 263], 1 to 100 nM. Same read-out and setting: the result for `NC1=Nc2ccccc2C1(O)c1cc(F)cc2ccccc12` (stereo not drawn) [Compound 264] reads 100 to 500 nM; that for `CCOc1cc(F)c(Cl)cc1C1(O)C(N)=Nc2ccc(C)cc21` (stereo not drawn) [Compound 265], 1 to 100 nM. Take `Cc1ccc2c(c1)C(O)(c1cc(F)cc3ccccc13)C(N)=N2` (stereo not drawn) [Compound 268]: the IC50 was 1 to 100 nM. The same measure, in the same setting: the result for `COc1ccc2c(c1)C(O)(c1cc(F)cc3ccccc13)C(N)=N2` (stereo not drawn) [Compound 269] reads 1 to 100 nM. With `Cc1ccc2c(c1)C(O)(c1cc(Cl)cnc1N(C)C)C(N)=N2` (stereo not drawn) [Compound 270], the IC50 was 1 to 100 nM. Same read-out and setting: then `COc1cc(C2(O)C(N)=Nc3ccc(Cl)cc32)c2c(cnn2C)c1` (stereo not drawn) [Compound 271], with 100 to 500 nM; and `Cn1ccc2cc(F)cc(C3(O)C(N)=Nc4ccc(Cl)cc43)c21` (stereo not drawn) [Compound 272], with 100 to 500 nM.

In the case of `Cc1ccc2c(c1)C(O)(c1cc(Cl)cc3ccccc13)C(N)=N2` (stereo not drawn) [Compound 273], the IC50 was in the range of 1 to 100 nM.

In the next data set the test system is Plasmodium falciparum strain Dd2. Nature of the data set: In vitro potency against P. falciparum strain Dd2. It counts as cell-based. To be noted: read-out: Potency (IC50; nM) Plasmodium spp. Pf Dd2.
Take `NC1=Nc2ccc(Cl)cc2C1(O)c1cccc2ccccc12` (stereo not drawn) [Compound 11]: the IC50 was 37 nM. The same measure, in the same setting: then `NC1=Nc2ccc(Cl)cc2C1(O)Cc1ccccc1` (stereo not drawn) [Compound 38], with 110 nM.

Test system in a further data set: not listed separately
Description: Mammalian cytotoxicity, kidney epithelial. Type of data set: cell-based. The conditions noted are these: normal human renal proximal tubule cells; read-out: Selectivity, Mammalian cytotoxicity (IC50; μM) Kidney epithelial.
For `NC1=Nc2ccc(Cl)cc2C1(O)c1cccc2ccccc12` (stereo not drawn) [Compound 11], the IC50 was 24 µM. Consider `NC1=Nc2ccc(Cl)cc2C1(O)Cc1ccccc1` (stereo not drawn) [Compound 38], for which the IC50 was above 62.5 µM.

Test system in the next data set: not listed separately
Description: Mammalian cytotoxicity, dermal fibroblast. To be noted: human, normal human dermal fibroblasts (Clonetics #CC-2509); read-out: Selectivity, Mammalian cytotoxicity (IC50; μM) Dermal Fibroblast. Type of data set: cell-based.
For the compound `NC1=Nc2ccc(Cl)cc2C1(O)c1cccc2ccccc12` (stereo not drawn) [Compound 11], the IC50 was determined as 24 µM. Same read-out and setting: then `NC1=Nc2ccc(Cl)cc2C1(O)Cc1ccccc1` (stereo not drawn) [Compound 38], with above 62.5 µM.
